Data published in patent US10179115B2, “Methods for treating malaria using potassium channel inhibitors” (THE CHILDREN'S MEDICAL CENTER CORPORATION, priority 2015, dated 2019).
Like-named read-outs stand apart in the source and are kept apart here.

Experiments:
[1] = tested on: P. falciparum 3D7; assay: in vitro growth inhibition of P. falciparum 3D7 over one asexual cycle; type: cell-based; conditions: Plasmodium falciparum
Excerpt: This nonlinear regression curve is representative of seven assays, each performed in triplicate.

[2] = tested on: P. falciparum 7G8; assay: in vitro growth inhibition of P. falciparum 7G8; type: cell-based; conditions: Plasmodium falciparum
[3] = tested on: P. falciparum W2mef; assay: microbe, parasite or virus in culture; type: cell-based; conditions: Plasmodium falciparum; for IC50: read-out: IC50 (mean ± 95% confidence interval)
[4] = tested on: P. knowlesi H1; assay: in vitro growth inhibition of P. knowlesi H1 cultured in rhesus erythrocytes; type: cell-based; conditions: Plasmodium knowlesi, Erythrocyte, in Macaca mulatta
Excerpt: (§1) To identify a relationship between senicapoc activity and human erythrocytes, P. knowlesi H1 cultured in rhesus erythrocytes and P. knowlesi YH-1 adapted for culture in human erythrocytes were each treated with senicapoc. There was no difference between the senicapoc IC50s for H1 and YH-1 (P=0.14) (Table 1). Senicapoc was similarly effective against parasitized human and rhesus erythrocytes.

[5] = tested on: P. knowlesi YH-1; assay: in vitro growth inhibition of P. knowlesi YH-1 adapted for culture in human erythrocytes; type: cell-based; conditions: Plasmodium knowlesi, Erythrocyte
Excerpt: as §1

[6] = tested on: human Plasmodium strains; assay: in vitro growth inhibition, all human Plasmodium strains tested; type: cell-based
[7] = tested on: P. falciparum 3D7; assay: growth inhibition through the 48-hour asexual blood stage by microscopy and flow cytometry; type: cell-based, Plasmodium falciparum; conditions: P<0.008
Procedure: Parasitemia was determined by flow cytometry and confirmed with microscopy (not shown). […] Data presented are representative of three replicates.
Mean fluorescence intensity (WI), determined by flow cytometry, is shown as a measure of parasite viability. […] The data point for “No drug” at 48 h was gated for schizonts only (20% of infected cells) to eliminate signal from reinvaded ring-stage parasites. Data for other time points were not gated, as schizonts represented 5% of infected cells.
To determine senicapoc's activity through the 48-hour asexual blood stage of the parasite, growth inhibition of P. falciparum 3D7 was characterized throughout the cycle by microscopy and flow cytometry.

[8] = tested on: P. yoelii 17X-NL; assay: in vivo efficacy against blood-stage parasites in infected C57BL/6 mice
Procedure: C57BL/6 mice infected with P. yoelii 17X-NL were treated by gavage with vehicle or senicapoc 400 or 800 mg/kg daily from days 2 to 10 post-infection (highlighted area) to mimic a preventive therapy.
FIG. 7 is a line graph showing senicapoc suppressed parasite growth in an in vivo murine model following established infection. C57BL/6 mice infected with P. yoelii 17X-NL were treated with vehicle or senicapoc 400 mg/kg twice daily from day 8 to day 15 postinfection (highlighted area) to mimic treatment of an active infection.
To establish in vivo efficacy against blood-stage parasites, C57BL/6 mice infected with P. yoelii 17X-NL (nonlethal strain) were treated with vehicle or senicapoc. […] Parasitemia increased after the drug was stopped (FIG. 6).

[9] = tested on: P. yoelii; type: in vivo; conditions: IK-1-/- mice, 400 mg/kg twice daily, days 8 to 15
Procedure: IK-1^−/− and IK-1^+/+ mice were treated with senicapoc twice daily on postinoculation days 8 to 15 (highlighted area).
To test whether senicapoc targets the Gardos channel in malaria-infected erythrocytes, we assessed the ability of P. yoe-lii to grow in the presence and absence of the channel in vivo using a Gardos knockout (IK-1^−/−) mouse model (Shmukler B E, Hsu A, Alves J, Trudel M, Rust M B, Hubner C A, Rivera A, Alper S L. 2013. N-ethylmaleimide activates a Cl(−)-independent component of K(+) flux in mouse erythrocytes. Blood Cells Mol Dis 51:9-16 and Rifler M, Bobbala D, Koka S, Boini K M, Mahmud H, Kasinathan R S, Shumilina E, Amann K, Beranek G, Sausbier U, Ruth P, Sausbier M, Lang F, Huber S M. 2010. […] The inventors then assessed the effectiveness of senicapoc in the presence and absence of the channel in vivo. P. yoelii-infected IK-1^−/− and IK-1^+/+ mice were treated with senicapoc 400 mg/kg twice daily.

[10] = patients with sickle cell disease; cited from earlier work
[11] = primates, daily doses of 1,000 mg/kg for 9 months; cited from earlier work
[12] = canines; cited from earlier work
[13] = cited from earlier work
[14] = patients with SCD; cited from earlier work
[15] = human and animal studies for SCD; cited from earlier work
[16] = P. falciparum 3D7, read-out: IC50 (mean ± 95% confidence interval)
[17] = P. falciparum 7G8, Res CQ, read-out: IC50 (mean ± 95% confidence interval)
[18] = read-out: IC90 (mean ± 95% confidence interval)
[19] = read-out: IC50 (mean ± 95% confidence interval)

Structure (SMILES): C[C@H]1[C@@H](O)O[C@@H]2O[C@@]3(C)CC[C@H]4[C@H](C)CC[C@@H]1[C@@]24OO3 [DHA, dihydroartemisinin]
- IC50 [1, 16]: 0.00273 ± 0.00155 µM
- IC50 [2, 17]: 0.00165 ± 0.00124 µM
- IC50 [3]: 0.00516 ± 0.00428 µM

Structure (SMILES): OC(c1cc(C(F)(F)F)nc2c(C(F)(F)F)cccc12)C1CCCCN1 (stereo not drawn) [MQ, mefloquine]
- IC50 [1, 16]: 0.0101 ± 0.00783 µM
- IC50 [2, 17]: 0.00363 ± 0.00058 µM
- IC50 [3]: 0.0267 ± 0.0155 µM

Structure (SMILES): NC(=O)C(c1ccccc1)(c1ccc(F)cc1)c1ccc(F)cc1 [senicapoc, 2,2-bis(4-fluorophenyl)-2-phenylacetamide]
- IC50 [1, 16]: 6.74 ± 0.25 µM
- IC90 ([1]; P. falciparum 3D7, read-out: IC90 (mean ± 95% confidence interval)): 10.2 ± 2.07 µM
- IC50 ([1]; blood-stage P. falciparum 3D7, FIG. 1, read-out: IC50): 6.7 µM
- IC50 [2, 17]: 10.9 ± 2.3 µM
- IC90 ([2]; P. falciparum 7G8, Res CQ, read-out: IC90 (mean ± 95% confidence interval)): 22.3 ± 9.52 µM
- IC50 [3]: 9.24 ± 3.13 µM
- IC90 [3, 18]: 12.3 ± 1.82 µM
- IC50 [4, 19]: 17.5 ± 6.74 µM
- IC90 [4, 18]: 31.4 ± 11.8 µM
- IC50 [5, 19]: 11 ± 1.38 µM
- IC90 [5, 18]: 37.4 ± 1.19 µM
- IC90 higher than the IC50 [6]: < 2 fold
- Nucleic acid content measured by mean fluorescence intensity (MFI) ([7]; at 36 h, treated cultures): weaker
- Parasitemia measured by flow cytometry ([7]; by 48 h postinvasion, treated cultures compared to control): reduced
- parasitemia ([8]; prophylaxis on postinoculation days 2 to 10, by day 10, vehicle 12%, P=0.04): 4.3%
- parasitemia ([8]; treatment 400 mg/kg twice daily on postinoculation days 8 to 15, beyond day 13, not statistically significant (P=0.058)): lower parasitemia
- activity against P. yoelii [9]: active
- peak concentrations achieved in human trials [10]: 337 nM
- tolerability [11]: well tolerated
- serum concentrations at which cardiotoxicity developed [12]: exceeded 18 M
- protein binding [13]: highly protein bound
- frequency of vasoocclusive pain episodes [14]: failed to modify
- physiological disease markers [14]: improved
- tolerability [15]: well tolerated

Structure (SMILES): CCN(CC)CCCC(C)Nc1ccnc2cc(Cl)ccc12 (stereo not drawn) [CQ, chloroquine]
- IC50 ([1]; 3D7, read-out: IC50 (mean ± 95% confidence interval)): 0.0156 ± 0.00331 µM
- IC50 ([2]; 7G8, read-out: IC50 (mean ± 95% confidence interval)): 0.0979 ± 0.0204 µM
- IC50 [3]: 0.316 ± 0.135 µM
